# Data from patent US20040077880A1 (priority 2000, published 2004).
# Test system: not listed separately
# Assay: logP determination by HPLC (EEC Directive 79/831 Annex V. A8)
# Assay type: physicochemical
# Settings: gradient method, acetonitrile/0,1% aqueous phosphoric acid
# Method: The logP values were determined in accordance with EEC Directive 79/831 Annex V. A8 by HPLC (Gradient method, acetonitrile/0,1% aqueous phosphoric acid)
row,SMILES,chromatographic logP
1,"Cc1noc(C)c1S(=O)(=O)n1c(C)c(Br)c(Br)c1C#N [Example 1, 3,4-dibromo-1-[(3,5-dimethyl-4-isoxazolyl)-sulfonyl]-5-methyl-1H-pyrrole-2-carbonitrile]",3.62
2,Cc1noc(C)c1S(=O)(=O)n1c(Br)c(Br)c(Br)c1C#N [Example 3],3.58
3,Cc1noc(C)c1S(=O)(=O)n1cc(Cl)c(Cl)c1C#N [Example 11],3.13

# Test system: Phytophthora infestans
# Assay: not given
# Assay type: in vivo
# Settings: tomato plants, protective spray, application rate 50 g/ha, evaluation three days after inoculation; 100% = no infection
row,SMILES,Efficacy in %
1,Cc1noc(C)c1S(=O)(=O)n1c(Br)c(Br)c(Br)c1C#N [drawing 9],98%
2,Cc1noc(C)c1S(=O)(=O)n1cc(Cl)c(Cl)c1C#N [drawing 10],95%
3,Cc1noc(C)c1S(=O)(=O)n1cc(Cl)c(Cl)c1C#N [drawing 11],94%
